Reference: patent US9029346B1, “Irreversible inhibitors of DNA polymerase beta” (The Johns Hopkins University, priority 2013, dated 2015)

Experiments:
[1] = system: mouse embryonic fibroblast cell lysates lyase activity; experiment: Lyase (dRPase) activity of mouse embryonic fibroblast lysates on 3′-32P-15; format: biochemical; details: for Rate of product formation: inhibitor + (18, 50 μM), 32 μg protein
[2] = Conversion of bisacetate proinhibitor to 3a in DU145 lysate (TLC analysis); format: in vitro ADME
[3] = biological target: Pol β lyase activity (Homo sapiens, UniProt P06746); experiment: Pol β lyase (dRPase) activity on 3′-32P-15 by gel electrophoresis
Experimental: The ability of 1a to inhibit Pol β's dRPase activity was examined using 3′-^32P-15 in which the oligonucleotide containing dRP was labeled.
The DNA substrate was added to the reaction following preincubation of 1a with Pol β and subsequent 100-fold dilution. The lyase reaction was monitored by gel electrophoresis.

[4] = system: DU145 lysate lyase activity; experiment: Lyase activity of DU145 cell extracts (lysates) on 3′-32P-15
Experimental: The aliquots were kept on ice for 1 h before mixing with loading buffer (5 μL). The samples were analyzed by 20% denaturing PAGE and quantified using a phosphorimager.
Cells were harvested by mild trypsinzation. The cells were then washed three times with phosphate buffered saline. Cell pellets were suspended in 1× Passive Lysis Buffer (PBL, Promega Corporation, E1941, Madison, Wis.) at concentration of 1×10^7 cells per mL and frozen in aliquots at −80° C. Protein concentrations were determined by Bio-Rad protein assay dye (Bio-Rad, 500-0006, Hercules, Calif.) according to the manufacturer's protocol and using bovine serum albumin as a standard.

[5] = system: DU145 prostate cancer cells; format: cell-based; details: for DU145 cells surviving treatment: 40 μM, FIG. 13A
Experimental: DU 145 cells were obtained from the American Type Culture Collection (ATCC, HTB-81, Manassas, Va.) and maintained in RPMI 1640 culture medium (Sigma-Aldrich R8758, St. Louis, Mo.), supplemented with 10% fetal bovine serum (Sigma-Aldrich F6178, St. Louis, Mo.). Cultures were grown at 37° C. in a humidified atmosphere of 5% carbon dioxide without any antibiotics and subcultured when they reached confluence. For clonogenic survival analysis, the appropriate number of cells were grown in standard 6-well tissue culture dishes in the growth media (2 mL per well). After 2 days, the cells were treated with Pol β inhibitors (3a or 18) by addition of sterile stock solution in water directly to the growth media to the desired final concentrations. Cells were treated similarly with methyl methanesulfonate (MMS, Sigma-Aldrich, St. Louis, Mo.). For combined treatments, 18 was added to the cells first followed by MMS. The compounds remained present throughout the entire assay. Two weeks after the treatment, the cells were fixed and stained with 0.2% solution of crystal violet in 50% methanol. Colonies with ≧50 cells were then counted. All treatments were carried out in triplicate.
[…]. Consequently, DU145 cell survival was measured as a function of MMS concentration, without and with 18 at a concentration (20 μM) where the proinhibitor itself results in approximately 45% cell death. […] […].

[6] = biological target: Pol β (Homo sapiens, UniProt P06746); format: biochemical
Experimental: It is worth noting that the well should be full to obtain accurate fluorescence data (approximately 380 μL). […] To determine the polymerase activity in the presence of each inhibitor, a solution of 13 (3.8 μL, 5 μM) and dTTP (3.8 μL, 10 mM) were also added (to make final [13]=50 nM and 100 μM of dTTP). The plates were immediately placed in the microtiter plate reader and the measurements were recorded.
It is worth noting that the well should be full in order to get accurate fluorescence data (approximately 380 μL). The solutions of inhibitors (40×) in acetonitrile obtained after pentenyl deprotection (10 μL) were transferred to the wells containing Pol β and incubated for 20 min. To determine the polymerase activity of enzyme in the presence of each inhibitor, solutions of ternary complex 13 (3.8 μL, 5 μM) and dTTP (3.8 μL, 10 mM) were also added (to make final 50 nM of 13 and 100 μM of dTTP). The plates were placed immediately in the microtiter plate reader Cary Eclipse Varian and the measurements started.
The inhibitor solution (40×, 10 μL) was added to the first well and preincubated for 20 min. At this time, the same portion of inhibitor was added to the second well. […] Once the inhibitor was added to the fifth well, solutions of ternary complex 13 (3.8 pit, 5 μM) and dTTP (3.8 μL, 10 mM) were also added and the fluorescence measurement was started immediately.

[7] = system: Klenow fragment of DNA polymerase 1; experiment: Klenow exo- strand displacement synthesis fluorescence assay (selectivity); format: biochemical, E. coli; details: 10 μM, same conditions as Pol β, FIG. 9
Experimental: […]. The volume of the solution in each well is approximately 400 μL. Pol β (final concentration, 10 nM) or Klenow exo-(final concentration 5 nM) is added and the measurement of the fluorescence is started immediately.
More than one dozen polymerases exist in a human cell. Because there is not access to each of these, the Klenow fragment of DNA polymerase 1 from E. coli was used as a primitive test of the inhibitor's (3a) selectivity. […]. However, the efficacy of the 1,4-dicarbonyl containing inhibitor (1a) was compromised by thiols, presumably due to nucleophilic addition (FIG. 10). […]

In the case of `COc1cc(Cl)c(/C=N/OC2C[C@H](n3cc(C)c(=O)[nH]c3=O)O[C@@H]2COP(=O)(O)OCC2CC(OC(C)=O)OC2OC(C)=O)c(Cl)c1O` (stereo partly shown) [compound 18], the “Rate of product formation” value ([1]; Pol β - lysate) is reported as 5.5 ± 1.5 ×10^−1 % · min^−1, the “Rate of product formation” value ([1]; Pol β wt lysate) is reported as 9.2 ± 2.4 ×10^−1 % · min^−1 and the “reduction of lyase activity” value ([1]; Pol β- cell lysates, 18 at 50 μM) is reported as “less than 30%”. For the same molecule, the “Rate of product formation” value ([1]; Pol β/λ - lysate) was 11.0 ± 4.0 ×10^−1 % · min^−1, the “Rate of product formation” value ([1]; Pol λ - lysate) was 9.1 ± 2.3 ×10^−1 % · min^−1 and the “Rate of product formation” value ([1]; Pol λ wt lysate, aliquots at 2, 5, 10 min) was 12.4 ± 3.2 ×10^−1 % · min^−1. For the same molecule, the “effect on lyase activity versus wild type cells” value ([1]; cells lacking Pol λ (Pol λ-), p=0.05) was “statistically indistinguishable”, the “effect on lyase activity versus Pol β- cells” value ([1]; double knock-out (Pol β-/Pol λ-) cells) was “within experimental error” and the “reduction of the rate of the lyase reaction” value ([1]; lysates from wild type cells, 18 at 50 μM) was roughly 2 fold. For the same molecule, the “time for conversion of bisacetate to 3a” value [2] was no more than 5 min, the “effect on Pol β lyase activity” value [3] was “had no effect” and the “inhibition of DU145 lysate lyase activity” value ([4]; 150 μM) was “Almost complete inhibition”. The “preincubation time by which inactivation was complete” value ([4]; 18 at 50 μM, preincubation varied 5-60 min) was no more than 15 min, the “lyase activity inhibition compared with 3a” value ([4]; 1 h preincubation, FIG. 11) was “significantly greater” and the “MMS concentration at and above which clear potentiation of cytotoxicity is seen” value [5] was no less than 0.2 mM. For the same molecule, the cell death ([5]; 20 μM, proinhibitor alone) was “approximately 45%” and the “DU145 cells surviving treatment” value [5] was “approximately 0.01%”.

With `COc1cc(Cl)c(/C=N/OC2C[C@H](n3cc(C)c(=O)[nH]c3=O)O[C@@H]2COP(=O)(OC)OCCC=O)c(Cl)c1O` (stereo partly shown) [compound 16] the “effect on Pol β lyase activity” value [3] was “had no effect”.

For `COc1cc(Cl)c(/C=N/OC2C[C@H](n3cc(C)c(=O)[nH]c3=O)O[C@@H]2COP(=O)(OC)OCC2CC(O)OC2O)c(Cl)c1O` (stereo partly shown) [2a], the “effect on Pol β activity in strand displacement assay” value [6] was “comparable inhibition activity as 1a”.

With `COc1cc(Cl)c(/C=N/OC2C[C@H](n3cc(C)c(=O)[nH]c3=O)O[C@@H]2COP(=O)(O)OCC2CC(O)OC2O)c(Cl)c1O` (stereo partly shown) [3a] the “effect on Klenow fragment's activity” value [7] was “no effect”, the lyase activity remaining ([4]; 150 μM) was “more than 30%” and the “DU145 cells surviving treatment” value [5] was 12%.
